Converted amounts (≈) assume the structure as drawn.
Legend:
Salmonella typhimurium = assay: Antimicrobial activity against Salmonella enterica subsp. enterica serovar Typhimurium ATCC 14028 assessed as inhibition of bacterial growth measured for 24 hrs by standard broth microdilution method; assay type: functional
Escherichia coli [1] = assay: Antibacterial activity against Escherichia coli ATCC 25922 incubated for 24 hrs by CLSI based micro-dilution method; assay type: functional
Pseudomonas aeruginosa [2] = assay: Antibacterial activity against Pseudomonas aeruginosa ATCC 27853 assessed as reduction in bacterial growth incubated for 18 hrs by broth micro-dilution method; assay type: functional
[3] = target: T1, UDP-3-O-acyl-N-acetylglucosamine deacetylase (Escherichia coli K-12, UniProt P0A725); assay: Inhibition of Escherichia coli LpxC
T1 sequence (P0A725 whole entry): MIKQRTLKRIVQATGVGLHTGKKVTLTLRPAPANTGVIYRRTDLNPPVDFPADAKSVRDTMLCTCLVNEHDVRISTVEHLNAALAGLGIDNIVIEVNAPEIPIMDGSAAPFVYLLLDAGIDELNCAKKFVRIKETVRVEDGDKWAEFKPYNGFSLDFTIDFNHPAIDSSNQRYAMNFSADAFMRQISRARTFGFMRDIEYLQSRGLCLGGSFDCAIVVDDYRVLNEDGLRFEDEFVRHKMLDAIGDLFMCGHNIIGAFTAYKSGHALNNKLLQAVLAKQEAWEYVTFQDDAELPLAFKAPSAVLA

Serratia marcescens = assay: Antibacterial activity against Serratia marcescens assessed as inhibition of bacterial growth by Muller-Hinton broth based serial dilution method; assay type: functional
Morganella morganii = assay: Antimicrobial activity against Morganella morganii ATCC 25830 assessed as inhibition of microbial growth incubated for 18 hrs by micro-broth dilution method; assay type: functional
Haemophilus influenzae = assay: Antibacterial activity against Haemophilus influenzae ATCC 49247 assessed as inhibition of microbial growth incubated for 18 hrs by micro-broth dilution method; assay type: functional
[4] = target: T1, UDP-3-O-acyl-N-acetylglucosamine deacetylase; assay: Binding affinity to Escherichia coli LpxC assessed as inhibition constant
Escherichia coli [5] = assay: Antibacterial activity against Escherichia coli ATCC 25922 assessed as reduction in bacterial growth incubated for 18 hrs by broth micro-dilution method; assay type: functional
Escherichia coli [6] = assay: Antibacterial activity against Escherichia coli ATCC 25922 assessed as reduction in bacterial growth by CLSI protocol based Mueller Hinton broth assay; assay type: functional
Pseudomonas aeruginosa [7] = assay: Antibacterial activity against Pseudomonas aeruginosa ATCC 27853 assessed as reduction in bacterial growth by CLSI protocol based Mueller Hinton broth assay; assay type: functional
Klebsiella pneumoniae [8] = assay: Antibacterial activity against Klebsiella pneumoniae A651 assessed as reduction in bacterial growth by CLSI protocol based Mueller Hinton broth assay; assay type: functional
Escherichia coli [9] = assay: Antibacterial activity against Escherichia coli CMCC 44568 assessed as reduction in bacterial growth incubated for 22 hrs byMueller-Hinton Broth assay; assay type: functional
Pseudomonas aeruginosa [10] = assay: Antibacterial activity against Pseudomonas aeruginosa CMCC 10104 assessed as reduction in bacterial growth incubated for 22 hrs byMueller-Hinton Broth assay; assay type: functional
[11] = Inhibition of Aquifex aeolicus LpxC
Pseudomonas aeruginosa [12] = assay: Antibacterial activity against Pseudomonas aeruginosa PAO1 assessed as reduction in bacterial growth incubated for 24 hrs By CLSI based micro-dilution method; assay type: functional
Escherichia coli [13] = assay: Antibacterial activity against Escherichia coli ATCC 25922; assay type: functional
Klebsiella pneumoniae [14] = assay: Antibacterial activity against Klebsiella pneumoniae ATCC 700603; assay type: functional
Pseudomonas aeruginosa [15] = assay: Antibacterial activity against Pseudomonas aeruginosa PAO1; assay type: functional
[16] = target: T2, UDP-3-O-acyl-N-acetylglucosamine deacetylase (Pseudomonas aeruginosa (strain ATCC 15692 / PAO1 / 1C / PRS 101 / LMG12228), UniProt P47205); assay: Binding affinity to Pseudomonas aeruginosa LpxC assessed as inhibition constant
T2 sequence (P47205 whole entry): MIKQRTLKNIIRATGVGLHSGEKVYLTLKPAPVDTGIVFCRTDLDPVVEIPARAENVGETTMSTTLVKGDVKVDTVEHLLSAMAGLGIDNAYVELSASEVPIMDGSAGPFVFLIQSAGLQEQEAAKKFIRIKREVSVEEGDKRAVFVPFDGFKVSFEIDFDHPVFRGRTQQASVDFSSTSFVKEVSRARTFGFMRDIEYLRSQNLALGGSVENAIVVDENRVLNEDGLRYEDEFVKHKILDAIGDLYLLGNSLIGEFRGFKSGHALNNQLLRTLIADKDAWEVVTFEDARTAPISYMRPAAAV

Escherichia coli [17] = assay: Antimicrobial activity against Escherichia coli ATCC 25922 assessed as reduction in bacterial growth incubated for 18 hrs by micro-dilution method; assay type: functional
Klebsiella pneumoniae [18] = assay: Antibacterial activity against Klebsiella pneumoniae ATCC 700603 assessed as inhibition of bacterial growth incubated for 18 hrs by broth micro-dilution method; assay type: functional
[19] = Toxicity in CD-1 mouse assessed as effective dose; details: in vivo
[20] = target: T2, UDP-3-O-acyl-N-acetylglucosamine deacetylase; assay: Inhibition of Pseudomonas aeruginosa LpxC
Escherichia coli [21] = assay: Anti-microbial activity against Escherichia coli ATCC 25922 assessed as reduction in bacterial growth incubated for 24 hrs By CLSI based micro-dilution method; assay type: functional
Escherichia coli [22] = assay: Antibacterial activity against Escherichia coli assessed as bacterial growth inhibition; assay type: functional
Pseudomonas aeruginosa [23] = assay: Antibacterial activity against Pseudomonas aeruginosa assessed as bacterial growth inhibition; assay type: functional
Klebsiella pneumoniae [24] = assay: Antibacterial activity against Klebsiella pneumoniae ATCC 43816 assessed as reduction in microbial growth incubated for 16 to 18 hrs by CLSI protocol based Muller Hinton broth assay; assay type: functional; details: time 16-18 hrs
Pseudomonas aeruginosa [25] = assay: Antibacterial activity against Pseudomonas aeruginosa assessed as reduction in bacterial growth; assay type: functional
Escherichia coli [26] = assay: Antibacterial activity against Escherichia coli ATCC 25922 assessed as reduction in bacterial growth; assay type: functional
Yersinia enterocolitica = assay: Antibacterial activity against Yersinia enterocolitica assessed as inhibition of bacterial growth incubated for 16 to 20 hrs by CLSI protocol based Muller Hinton broth assay; assay type: functional; details: time 16-20 hrs
Pseudomonas aeruginosa [27] = assay: Antibacterial activity against Pseudomonas aeruginosa ATCC 27853 assessed as reduction in bacterial growth by CLSI protocol based Muller Hinton broth assay; assay type: functional

C[C@@H](O)[C@H](NC(=O)c1ccc(C#CC#Cc2ccccc2)cc1)C(=O)NO
MIC (Salmonella typhimurium): 0.024 µg/mL (≈ 0.0662 µM) | MIC (Escherichia coli [1]): 0.05 µg/mL (≈ 0.138 µM) | MIC (Pseudomonas aeruginosa [2]): 0.74 µg/mL (≈ 2.04 µM)

O=C(NO)[C@@H](Cc1ccc2ccccc2c1)NS(=O)(=O)c1ccc2ccccc2c1
IC50 [3]: 160 nM | MIC (Serratia marcescens): 1 µg/mL (≈ 2.38 µM) | MIC (Morganella morganii): 1 µg/mL | MIC (Haemophilus influenzae): 1 µg/mL

O=C(NO)[C@H]1O[C@@H](c2ccc(C#CC#Cc3ccccc3)cc2)[C@@H](O)[C@H]1O
Ki [4]: 4400 nM

CCCc1cc(C2=NC(C(=O)NO)CO2)ccc1OC (stereo not drawn)
MIC (Escherichia coli [5]): 1 µg/mL (≈ 3.59 µM)

C[C@@](CCN1Cc2cc(C#Cc3ccc([C@H]4C[C@@H]4CO)cc3)cn2C1=O)(C(=O)NO)S(C)(=O)=O
MIC (Escherichia coli [6]): 0.031 µg/mL (≈ 0.0638 µM) | MIC (Pseudomonas aeruginosa [7]): 0.5 µg/mL (≈ 1.03 µM) | MIC (Klebsiella pneumoniae [8]): 0.125 µg/mL (≈ 0.257 µM)

N=C(N)N/N=C/c1ccc(C#CC#Cc2ccccc2Cl)cc1
MIC (Escherichia coli [9]): 8 µg/mL (≈ 24.9 µM) | MIC (Pseudomonas aeruginosa [10]): 4 µg/mL (≈ 12.5 µM)

CCCCCC(=O)O[C@@H]1[C@@H](CP(C)(=O)O)CO[C@H](CO)[C@H]1O
IC50 [3]: 115000 nM | IC50 [11]: 192000 nM

CC(O)C#CC#Cc1ccc(C2=NO[C@@H](C[C@](C)(C(=O)NO)S(C)(=O)=O)C2)cc1 (stereo partly drawn)
MIC (Pseudomonas aeruginosa [12]): 0.06 µg/mL (≈ 0.143 µM)

CNC(=O)c1ccc(-c2ccc(NCc3oc(S(C)(=O)=O)cc(=O)c3O)cc2)cc1
IC50 [3]: 100 nM

COC[C@@H]1C[C@H]1C#CC#Cc1ccc(C(=O)N[C@H](C(=O)NO)C(C)(C)N)cc1
MIC (Escherichia coli [13]): 0.12 µg/mL (≈ 0.313 µM) | MIC (Klebsiella pneumoniae [14]): 0.5 µg/mL (≈ 1.3 µM) | MIC (Pseudomonas aeruginosa [15]): 0.5 µg/mL (≈ 1.3 µM)

C[C@@](O)(C(F)F)[C@H](NC(=O)c1ccc(C#CC#CC2CC2)cc1)C(=O)NO
Ki [16]: 0.0089 nM | MIC90 (Escherichia coli [17]): 0.5 µg/mL (≈ 1.33 µM) | MIC90 (Klebsiella pneumoniae [18]): 0.125 µg/mL (≈ 0.332 µM) | ED50 [19]: 7.2 mg/kg/day

O=C(CO/N=C/c1ccc(O)c(O)c1O)NC[C@H]1O[C@@H](n2ccc(=O)[nH]c2=O)[C@@H](O)[C@H]1O
IC50 [3]: 27000 nM

O=C(NO)C1(NCc2ccc(-c3ccc(Cl)cc3F)c(F)c2)CCS(=O)(=O)CC1
IC50 [20]: 0.2 nM | MIC (Pseudomonas aeruginosa [12]): 0.25 µg/mL (≈ 0.562 µM)

O=C(NO)[C@@H](Cc1ccc2ccccc2c1)NS(=O)(=O)c1ccc2cc(Br)ccc2c1
IC50 [3]: 400 nM | MIC (Serratia marcescens): 1 µg/mL (≈ 2 µM) | MIC (Morganella morganii): 1 µg/mL | MIC (Haemophilus influenzae): 1 µg/mL

O=C(NO)[C@H]1O[C@@H](c2ccc(C#Cc3ccc(CN4CCOCC4)cc3)cc2)C[C@H]1O
Ki [4]: 3500 nM | MIC (Escherichia coli [21]): 2 µg/mL (≈ 4.73 µM)

CC(O)C(CP(=O)(O)O)NC(=O)c1ccc(C#Cc2ccc(CN3CCOCC3)cc2)cc1 (stereo not drawn)
MIC (Escherichia coli [22]): 0.28 µg/mL (≈ 0.593 µM) | MIC (Pseudomonas aeruginosa [23]): 2.06 µg/mL (≈ 4.36 µM)

O=C(NO)[C@@H](OCc1ccc(C#Cc2ccc(CN3CCOCC3)cc2)cc1)[C@@H](O)COCc1ccccc1
MIC (Escherichia coli [21]): 0.125 µg/mL (≈ 0.236 µM)

N=C(N)N/N=C/c1ccc(C#CC#Cc2ccc(Cl)cc2)cc1
MIC (Escherichia coli [9]): 2 µg/mL (≈ 6.23 µM) | MIC (Pseudomonas aeruginosa [10]): 1 µg/mL (≈ 3.12 µM)

C[C@]1(CO)C[C@@H]1C#CC#Cc1ccc2c(=O)n(CC[C@](C)(C(=O)NO)S(C)(=O)=O)cnc2c1
MIC (Escherichia coli [6]): 0.063 µg/mL (≈ 0.134 µM) | MIC (Pseudomonas aeruginosa [7]): 1 µg/mL (≈ 2.12 µM) | MIC (Klebsiella pneumoniae [8]): 0.25 µg/mL (≈ 0.53 µM)

CS(=O)(=O)c1cc(=O)c(O)c(CNc2ccc(-c3ccc(N4CCOCC4)cc3)cc2)o1
IC50 [3]: 100 nM

CC(C)(N)[C@H](NC(=O)c1ccc(C#CC#C[C@@H]2C[C@H]2CO)cc1)C(=O)NO [ACHN-975]
MIC (Klebsiella pneumoniae [24]): 0.5 µg/mL | MIC (Pseudomonas aeruginosa [25]): ≤ 1 µg/mL | MIC (Escherichia coli [26]): 0.125 µg/mL (≈ 0.338 µM) | MIC (Yersinia enterocolitica): 2 µg/mL (≈ 5.41 µM) | MIC (Pseudomonas aeruginosa [27]): 0.25 µg/mL (≈ 0.677 µM)

— ChEMBL document CHEMBL6134815, “Research progress of LpxC inhibitor on Gram-negative bacteria” (Eur J Med Chem, 2025)
